Data on 15 molecules can be found in patent US9376391B2, “Difluoromethyl-nicotinic-tetrahydronaphthyl carboxamides as fungicides” (BAYER CROPSCIENCE AKTIENGESELLSCHAFT, priority 2012, dated 2016).

Data set [1] is described as follows: log P by HPLC on reversed phase columns (EEC directive 79/831 Annex V.A8). The following applies: Table 1, formula (I); HPLC/LC-MS at pH 2.7, 0.1% formic acid in water / acetonitrile, gradient 10% to 95%. Format: physicochemical.
The subject of data set [2] is Pyrenophora teres. Put plainly: In vivo preventive test on Pyrenophora teres (net blotch on barley). As to conditions: barley, spray, graded 14 days after contamination vs control plants. As to the method:
In Vivo Preventive Test on Pyrenophora teres (Net Blotch on Barley)
(§1) The active ingredients tested are prepared by homogenization in a mixture of acetone/tween/DMSO, and then diluted with water to obtain the desired active material concentration.
Barley plants (“Plaisant” variety), sown in starter cups on a 50/50 peat soil-pozzolana substrate and grown at 22° C., are treated at the 1-leaf stage (10 cm height) by spraying with the active ingredient prepared as described above. Plants, used as controls, are treated with the mixture of acetone/tween/DMSO/water not containing the active material.
After 24 hours, the plants are contaminated by spraying the leaves with an aqueous suspension of Pyrenophora teres spores (12 000 spores per ml). The spores are collected from a 12-day-old culture. The contaminated barley plants are incubated for 48 hours at 20° C. and at 100% relative humidity, and then for 12 days at 20° C. at 70-80% relative humidity.
Grading (% of efficacy) is carried out 14 days after the contamination, in comparison with the control plants. plants.

Data set [3] deals with Puccinia recondita. Put plainly: In vivo preventive test on Puccinia recondita (brown rust on wheat). The following applies: wheat, spray, graded 12 days after contamination vs control plants. The protocol: In Vivo Preventive Test on Puccinia recondita (Brown Rust on Wheat) […] Wheat plants (“Scipion” variety), sown in starter cups on a 50/50 peat soil-pozzolana substrate and grown at 22° C., are treated at the 1-leaf stage (10 cm height) by spraying with the active ingredient prepared as described above. Plants, used as controls, are treated with the mixture of acetone/tween/DMSO/water not containing the active material. After 24 hours, the plants are contaminated by spraying the leaves with an aqueous suspension of Puccinia recondita spores (100 000 spores per ml). The spores are collected from an infected plant and are suspended in water containing 2.5 ml/1 of Tween 80 at 10%. The contaminated wheat plants are incubated for 24 hours at 20° C. and at 100% relative humidity, and then for 10 days at 20° C. and at 70-80% relative humidity. Grading (% of efficacy) is carried out 12 days after the contamination, in comparison with the control plants.

Data set [4] deals with Uromyces appendiculatus. Description: In vivo preventive test on Uromyces appendiculatus (bean rust). As to conditions: preventive spray, bean plants, grading 11 days after contamination. The protocol: In Vivo Preventive Test on Uromyces appendiculatus (Bean Rust) […] Bean plants (“Saxa” variety), sown in starter cups on a 50/50 peat soil-pozzolana substrate and grown at 24° C., are treated at the 2-leaf stage (9 cm height) by spraying with the active ingredient prepared as described above. Plants, used as controls, are treated with the mixture of acetone/tween/DMSO/water not containing the active material. After 24 hours, the plants are contaminated by spraying the leaves with an aqueous suspension of Uromyces appendiculatus spores (150 000 spores per ml). The spores are collected from infected plants and are suspended in water containing 2.5 ml/1 of Tween 80 at 10%. The contaminated bean plants are incubated for 24 hours at 20° C. and at 100% relative humidity, and then for 10 days at 20° C. and at 70-80% relative humidity. Grading (% of efficacy) is carried out 11 days after the contamination, in comparison with the control plants.

The subject of data set [5] is Septoria tritici. Put plainly: In vivo preventive test on Septoria tritici (leaf spot on wheat). As to conditions: preventive spray, wheat plants, grading 24 days after contamination. The protocol:
In Vivo Preventive Test on Septoria tritici (Leaf Spot on Wheat)
as §1
Wheat plants (“Scipion” variety), sown in starter cups on a 50/50 peat soil-pozzolana substrate and grown at 22° C., are treated at the 1-leaf stage (10 cm height) by spraying with the active ingredient prepared as described above. Plants, used as controls, are treated with the mixture of acetone/tween/DMSO/water not containing the active material.
After 24 hours, the plants are contaminated by spraying the leaves with an aqueous suspension of cryopreserved Septoria tritici spores (500 000 spores per ml). The contaminated wheat plants are incubated for 72 hours at 18° C. and at 100% relative humidity, and then for 21 days at 90% relative humidity.
Grading (% of efficacy) is carried out 24 days after the contamination, in comparison with the control plants.

Data set [6] relates to Sphaerotheca fuliginea. Description: In vivo preventive test on Sphaerotheca fuliginea (powdery mildew on cucurbits). As to conditions: preventive spray, gherkin plants, grading 12 days after contamination. The protocol: In Vivo Preventive Test on Sphaerotheca fuliginea (Powdery Mildew on Cucurbits)
(§2) The active ingredients tested are prepared by homogenization in a mixture of acetone/tween/DMSO and then diluted with water to obtain the desired active material concentration.
(§3) Gherkin plants (“Vert petit de Paris” variety), sown in starter cups on a 50/50 peat soil-pozzolana substrate and grown at 24° C., are treated at the Z11 cotyledon stage by spraying with the active ingredient prepared as described above. Plants, used as controls, are treated with the mixture of acetone/tween/DMSO/water not containing the active material.
After 24 hours, the plants are contaminated by spraying the cotyledons with an aqueous suspension of Sphaerotheca fuliginea spores (100 000 spores per ml). The spores are collected from infected plants. The contaminated gherkin plants are incubated at about 20° C. and at 70-80% relative humidity.
Grading (% of efficacy) is carried out 12 days after the contamination, in comparison with the control plants.

Data set [7] relates to Alternaria brassicae. Put plainly: In vivo preventive test on Alternaria brassicae (leaf spot on radish). The following applies: spray, graded 6 days after contamination vs control plants. The protocol: In Vivo Preventive Test on Alternaria brassicae (Leaf Spot on Radish)
as §1
Radish plants (“Pernod Clair” variety), sown in starter cups on a 50/50 peat soil-pozzolana substrate and grown at 17° C., are treated at the cotyledon stage by spraying with the active ingredient prepared as described above. Plants, used as controls, are treated with the mixture of acetone/tween/DMSO/water not containing the active material.
After 24 hours, the plants are contaminated by spraying the cotyledons with an aqueous suspension of Alternaria brassicae spores (50 000 spores per ml). The spores are collected from a 15-day-old culture. The contaminated radish plants are incubated at 20° C. and at 100% relative humidity.
Grading (% of efficacy) is carried out 6 days after the contamination, in comparison with the control plants.

Data set [8] relates to Botrytis cinerea. Put plainly: In vivo preventive test on Botrytis cinerea (grey mould), gherkin plants. As to conditions: gherkin, spray, graded 4 to 5 days after contamination vs control plants. The protocol:
In Vivo Preventive Test on Botrytis cinerea (Grey Mould)
as §2, §3
After 24 hours, the plants are contaminated by spraying the cotyledons with an aqueous suspension of cryopreserved Botrytis cinerea spores (50 000 spores per ml). The spores are suspended in a nutrient solution composed of 10 g/L of PDB, 50 g/L of D-Fructose, 2 g/L of NH4NO3 and 1 g/L of KH2PO4. The contaminated gherkin plants are incubated at 17° C. and at 90% relative humidity.
Grading (% of efficacy) is carried out 4 to 5 days after the contamination, in comparison with the control plants.

On to `CC1Cc2c(NC(=O)c3cccnc3C(F)F)cccc2C1C` (stereo not drawn) [Example 36], for which, in data set [1], the “logP^[a]” value was 3.06^[a]. The Eff. % in data set [2] (dose 500 ppm) stood at 75%; in data set [3] (dose 500 ppm) it was 98%; in data set [4] (500 ppm), 100%.

Take `CC(C)(C)C1CCc2c(NC(=O)c3cccnc3C(F)F)cccc21` (racemic) [Example 39]: the “logP^[a]” value in data set [1] is 3.78^[a]. For the same molecule, the Eff. % in data set [2] (dose 500 ppm) is recorded as 83%; in data set [3] (dose 500 ppm), 98%; in data set [5] (500 ppm) it was 86%; in data set [6] (500 ppm), 94%; in data set [4] (500 ppm), 100%.

Consider `CCC1(CC)OC(C(C)C)c2c(NC(=O)c3cccnc3C(F)F)cccc21` (racemic) [Example 56], for which the “logP^[a]” value in data set [1] is 3.64^[a]. Besides, the Eff. % in data set [7] (dose 500 ppm) is listed as 93%; in data set [2] (dose 500 ppm), 92%; in data set [3] (dose 500 ppm), 88%; in data set [5] (500 ppm), 93%; in data set [6] (500 ppm), 98%; in data set [4] (500 ppm), 100%.

For `CC1CC(C)(C)c2c(F)ccc(NC(=O)c3cccnc3C(F)F)c21` (stereo not drawn) [Example 2], the “logP^[a]” value in data set [1] was 3.35^[a]. Besides, the Eff. % in data set [7] (dose 500 ppm) is 98%; in data set [8] (dose 500 ppm), 97%; in data set [3] (dose 500 ppm), 100%; in data set [5] (500 ppm), 100%; in data set [6] (500 ppm), 100%; in data set [4] (500 ppm), 100%.

Regarding `CC1CCc2cccc(NC(=O)c3cccnc3C(F)F)c21` (racemic) [Example 4], the “logP^[a]” value in data set [1] was 2.63^[a]. Moreover, the Eff. % in data set [7] (dose 500 ppm) was found to be 71%; in data set [2] (dose 500 ppm), 75%; in data set [3] (dose 500 ppm), 97%; in data set [5] (500 ppm) it was 100%; in data set [4] (500 ppm) it was 100%.

For the molecule `CCC1Cc2c(NC(=S)c3cccnc3C(F)F)cccc2C1(C)C` (stereo not drawn) [Example 69], the “logP^[a]” value in data set [1] is 4.16^[a]. Besides, the Eff. % in data set [2] (dose 100 ppm) came out at 70%; in data set [3] (dose 100 ppm), 100%; in data set [5] (100 ppm), 80%; in data set [6] (100 ppm), 100%; in data set [4] (100 ppm) it was 100%.

`CC1c2c(cccc2NC(=O)c2cccnc2C(F)F)CC1(C)C` (stereo not drawn) [Example 85]: the “logP^[a]” value in data set [1] was 3.29^[a]. Further, the Eff. % turned out to be 98% in data set [8] (dose 100 ppm), 97% in data set [3] (dose 100 ppm), 79% in data set [5] (100 ppm) and 100% in data set [6] (100 ppm).

`CCCCON=C1CC(C)c2c(NC(=O)c3cccnc3C(F)F)cccc21` (racemic) [Example 51]: the “logP^[a]” value in data set [1] is 3.18^[a]. Also, the Eff. % in data set [7] (dose 500 ppm) is on record as 93%; in data set [2] (dose 500 ppm), 83%; in data set [3] (dose 500 ppm), 75%; in data set [4] (500 ppm), 70%.

As for `CCON=C1CC(C)c2c(NC(=O)c3cccnc3C(F)F)cccc21` (racemic) [Example 52], the “logP^[a]” value in data set [1] is 2.71^[a]. The Eff. % was determined as 86% in data set [7] (dose 500 ppm), 75% in data set [2] (dose 500 ppm), 86% in data set [5] (500 ppm) and 93% in data set [4] (500 ppm).

Turning to `CC1CC2(CC2)c2cccc(NC(=O)c3cccnc3C(F)F)c21` (racemic) [Example 42], the “logP^[a]” value in data set [1] was 3.00^[a]. The Eff. % is recorded as 83% in data set [7] (dose 500 ppm); 99% in data set [8] (dose 500 ppm); 100% in data set [3] (dose 500 ppm); 79% in data set [5] (500 ppm); 89% in data set [6] (500 ppm); 100% in data set [4] (500 ppm).

As to `CCC1(CC)CC(C)c2c(NC(=O)c3cccnc3C(F)F)cccc21` (racemic) [Example 78], the “logP^[a]” value in data set [1] is 4.01^[a]. Moreover, the Eff. % is recorded as 80% in data set [7] (dose 100 ppm); 98% in data set [8] (dose 100 ppm); 100% in data set [3] (dose 100 ppm); 98% in data set [6] (100 ppm); 100% in data set [4] (100 ppm).

As for `CCC1(CC)OC(C)c2c(NC(=O)c3cccnc3C(F)F)cccc21` (racemic) [Example 25], in data set [1], the “logP^[a]” value is 2.86^[a]. Also, the Eff. % is recorded as 96% in data set [8] (dose 500 ppm), 98% in data set [3] (dose 500 ppm), 86% in data set [5] (500 ppm) and 100% in data set [4] (500 ppm).

In the case of `CC1CC(C)(C)c2c(C3CC3)ccc(NC(=O)c3cccnc3C(F)F)c21` (stereo not drawn) [Example 10], the “logP^[a]” value in data set [1] was 3.79^[a]. Besides, the Eff. % was 100% in data set [8] (dose 500 ppm), 100% in data set [3] (dose 500 ppm) and 99% in data set [4] (500 ppm).

`CCC1(CC)CC(C)c2c(NC(=O)c3ccc(Cl)nc3C(F)F)cccc21` (racemic) [Example 80]: the “logP^[a]” value in data set [1] was 4.72^[a]. Besides, the Eff. % in data set [8] (dose 100 ppm) is recorded as 70%; in data set [3] (dose 100 ppm), 94%; in data set [4] (100 ppm) it was 91%.

Turning to `CC1c2c(NC(=O)c3cccnc3C(F)F)cccc2C(C)(C)C1C` (stereo not drawn) [Example 33], the “logP^[a]” value in data set [1] is 3.48^[a]. Also, the Eff. % came to 100% in data set [7] (dose 500 ppm); 97% in data set [8] (dose 500 ppm); 100% in data set [3] (dose 500 ppm); 100% in data set [5] (500 ppm); 100% in data set [6] (500 ppm); 100% in data set [4] (500 ppm).
